# In BindingDB's records for doi:10.1021/jm060173k (Schering-Plough Research Institute, 2007):
# pKi: −log10 of the molar value.
# Molecular target: Genome polyprotein (Hepatitis C virus genotype 1a (isolate H77), UniProt P27958)
# Experiment: Continuous Spectrophotometric Assay
# Conditions: not given
# Description: Proteolytic cleavage of the ester linkage between the Nva (L-norvaline) and the chromophore (PAP) was monitored for change in absorbance at 370 nm. Initial velocities were determined using linear regression and kinetic constants were obtained by fitting the data to the Michaelis-Menten equation.
# Chain of Genome polyprotein (P27958 1027-1657 limits assumed): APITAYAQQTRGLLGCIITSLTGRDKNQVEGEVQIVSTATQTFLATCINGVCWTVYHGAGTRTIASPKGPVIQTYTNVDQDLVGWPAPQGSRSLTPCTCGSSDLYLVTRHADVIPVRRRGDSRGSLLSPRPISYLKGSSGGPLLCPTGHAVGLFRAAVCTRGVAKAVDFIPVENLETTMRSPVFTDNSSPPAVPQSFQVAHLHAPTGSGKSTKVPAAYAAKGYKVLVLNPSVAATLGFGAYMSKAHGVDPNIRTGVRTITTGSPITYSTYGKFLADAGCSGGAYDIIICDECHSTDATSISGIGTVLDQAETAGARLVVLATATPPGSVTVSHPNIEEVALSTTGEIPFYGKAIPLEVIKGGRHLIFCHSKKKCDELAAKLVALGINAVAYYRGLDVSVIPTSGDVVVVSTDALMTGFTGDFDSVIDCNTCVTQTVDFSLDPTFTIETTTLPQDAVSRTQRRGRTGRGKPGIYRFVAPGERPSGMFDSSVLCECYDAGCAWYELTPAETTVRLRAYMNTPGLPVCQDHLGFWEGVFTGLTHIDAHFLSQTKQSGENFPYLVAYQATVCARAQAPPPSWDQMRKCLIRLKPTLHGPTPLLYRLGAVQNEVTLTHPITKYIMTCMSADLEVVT
row,SMILES,pKi
1,"CC(C)(C)NC(=O)NC(C(=O)N1C[C@H]2[C@@H](C1C(=O)NC(CC1CCC1)C(=O)C(N)=O)C2(Cl)Cl)C(C)(C)C (stereo partly drawn) [3-{[(1S,5R)-3-{2-[(tert-butylcarbamoyl)amino]-3,3-dimethylbutanoyl}-6,6-dichloro-3-azabicyclo[3.1.0]hexan-2-yl]formamido}-4-cyclobutyl-2-oxobutanamide]",7.72
2,"CC(C)(C)NC(=O)NC(C(=O)N1C[C@H]2[C@@H](C1C(=O)NC(CC1CC(F)(F)C1)C(=O)C(N)=O)C2(C)C)C(C)(C)C (stereo partly drawn) [3-{[(1R,5S)-3-{2-[(tert-butylcarbamoyl)amino]-3,3-dimethylbutanoyl}-6,6-dimethyl-3-azabicyclo[3.1.0]hexan-2-yl]formamido}-4-(3,3-difluorocyclobutyl)-2-oxobutanamide]",6.94
3,"CC(C)(C)NC(=O)NC(C(=O)N1C[C@H]2[C@@H](C1C(=O)NC(CC1CC1(F)F)C(=O)C(N)=O)C2(C)C)C(C)(C)C (stereo partly drawn) [3-{[(1R,5S)-3-{2-[(tert-butylcarbamoyl)amino]-3,3-dimethylbutanoyl}-6,6-dimethyl-3-azabicyclo[3.1.0]hexan-2-yl]formamido}-4-(2,2-difluorocyclopropyl)-2-oxobutanamide]",7.30
4,"CC(C)(C)NC(=O)NC(C(=O)N1C[C@H]2[C@@H](C1C(=O)NC(CC1CCC1)C(=O)C(N)=O)C2(F)F)C(C)(C)C (stereo partly drawn) [3-{[(1S,5R)-3-{2-[(tert-butylcarbamoyl)amino]-3,3-dimethylbutanoyl}-6,6-difluoro-3-azabicyclo[3.1.0]hexan-2-yl]formamido}-4-cyclobutyl-2-oxobutanamide]",6.85
5,"CC(C)(C)NC(=O)NC(C(=O)N1C[C@@H]2OC(C)(C)[C@@H]2C1C(=O)NC(CC1CCC1)C(=O)C(N)=O)C(C)(C)C (stereo partly drawn) [3-{[(1R,5R)-3-{2-[(tert-butylcarbamoyl)amino]-3,3-dimethylbutanoyl}-7,7-dimethyl-6-oxa-3-azabicyclo[3.2.0]heptan-2-yl]formamido}-4-cyclobutyl-2-oxobutanamide]",6.02
6,"CC(=O)NC(C(=O)NC(C(=O)N1C[C@H]2[C@@H](C1C(=O)NC(CC1CCC1)C(=O)C(N)=O)C2(C)C)C(C)(C)C)C(C)C (stereo partly drawn) [N-{1-[(1R,5S)-2-[(1-carbamoyl-3-cyclobutyl-1-oxopropan-2-yl)carbamoyl]-6,6-dimethyl-3-azabicyclo[3.1.0]hexan-3-yl]-3,3-dimethyl-1-oxobutan-2-yl}-2-acetamido-3-methylbutanamide]",7.42
7,"CC(C)(C)NC(=O)NC(C(=O)N1C[C@@H]2OC(C)(C)C[C@@H]2C1C(=O)NC(CC1CCC1)C(=O)C(N)=O)C(C)(C)C (stereo partly drawn) [3-{[(3aR,6aR)-5-{2-[(tert-butylcarbamoyl)amino]-3,3-dimethylbutanoyl}-2,2-dimethyl-hexahydro-2H-furo[2,3-c]pyrrol-4-yl]formamido}-4-cyclobutyl-2-oxobutanamide]",6.30
8,"CC(C)C(NC(=O)NC(C)(C)C)C(=O)N1C[C@H]2[C@@H](C1C(=O)NC(CC1CC1)C(=O)C(N)=O)C2(C)C (stereo partly drawn) [3-{[(1R,5S)-3-{2-[(tert-butylcarbamoyl)amino]-3-methylbutanoyl}-6,6-dimethyl-3-azabicyclo[3.1.0]hexan-2-yl]formamido}-4-cyclopropyl-2-oxobutanamide]",7.00
9,"CC(C)CC(NC(=O)C(NC(=O)NC(C)(C)C)C(C)(C)C)C(=O)NC(CC1CCC1)C(=O)C(N)=O (stereo not given) [2-{2-[(tert-butylcarbamoyl)amino]-3,3-dimethylbutanamido}-N-(1-carbamoyl-3-cyclobutyl-1-oxopropan-2-yl)-4-methylpentanamide]",6.00

# Second part, the compound after the results:
row,pKi,SMILES
1,7.22,"CC(C)OC(=O)NC(C(=O)N1C[C@H]2[C@@H](C1C(=O)NC(CC1CC1)C(=O)C(N)=O)C2(C)C)C1CCCCC1 (stereo partly drawn) [propan-2-yl N-{2-[(1R,5S)-2-[(1-carbamoyl-3-cyclopropyl-1-oxopropan-2-yl)carbamoyl]-6,6-dimethyl-3-azabicyclo[3.1.0]hexan-3-yl]-1-cyclohexyl-2-oxoethyl}carbamate]"
2,6.10,"COC(=O)NC(C(=O)N1C[C@H]2[C@@H](C1C(=O)NC(CC1CC1)C(=O)C(N)=O)C2(C)C)C1CCCCC1 (stereo partly drawn) [methyl N-{2-[(1R,5S)-2-[(1-carbamoyl-3-cyclopropyl-1-oxopropan-2-yl)carbamoyl]-6,6-dimethyl-3-azabicyclo[3.1.0]hexan-3-yl]-1-cyclohexyl-2-oxoethyl}carbamate]"
3,7.17,"CC(=O)NC(C(=O)NC(C(=O)N1C[C@H]2[C@@H](C1C(=O)NC(CC1CC1)C(=O)C(N)=O)C2(C)C)C1CCCCC1)C(C)C (stereo partly drawn) [N-{2-[(1R,5S)-2-[(1-carbamoyl-3-cyclopropyl-1-oxopropan-2-yl)carbamoyl]-6,6-dimethyl-3-azabicyclo[3.1.0]hexan-3-yl]-1-cyclohexyl-2-oxoethyl}-2-acetamido-3-methylbutanamide]"
4,6.64,"CCOC(=O)NC(C(=O)N1C[C@H]2[C@@H](C1C(=O)NC(CC1CC1)C(=O)C(N)=O)C2(C)C)C1CCCCC1 (stereo partly drawn) [ethyl N-{2-[(1R,5S)-2-[(1-carbamoyl-3-cyclopropyl-1-oxopropan-2-yl)carbamoyl]-6,6-dimethyl-3-azabicyclo[3.1.0]hexan-3-yl]-1-cyclohexyl-2-oxoethyl}carbamate]"

# Same assay, conditions: pH 6.5; 30 °C
row,SMILES,pKi
1,"CC(C)(C)NC(=O)NC(C(=O)N1C[C@H]2[C@@H](C1C(=O)NC(C(=O)C(N)=O)C1CCC1)C2(C)C)C(C)(C)C (stereo partly drawn) [3-{[(1R,5S)-3-{2-[(tert-butylcarbamoyl)amino]-3,3-dimethylbutanoyl}-6,6-dimethyl-3-azabicyclo[3.1.0]hexan-2-yl]formamido}-3-cyclobutyl-2-oxopropanamide]",7.00
2,"CCCC(NC(=O)C1[C@@H]2[C@H](CN1C(=O)C(NC(=O)NC(C)(C)C)C1CCCCC1)C2(C)C)C(=O)C(N)=O (stereo partly drawn) [3-{[(1R,5S)-3-{2-[(tert-butylcarbamoyl)amino]-2-cyclohexylacetyl}-6,6-dimethyl-3-azabicyclo[3.1.0]hexan-2-yl]formamido}-2-oxohexanamide]",7.27

# Now from value to compound:
row,pKi,SMILES
1,< 5.48,"CC(C)(C)CC(NC(=O)C1[C@@H]2[C@H](CN1C(=O)C(NC(=O)OC(C)(C)C)C(C)(C)C)C2(C)C)C(=O)C(N)=O (stereo partly drawn) [tert-butyl N-{1-[(1R,5S)-2-[(1-carbamoyl-4,4-dimethyl-1-oxopentan-2-yl)carbamoyl]-6,6-dimethyl-3-azabicyclo[3.1.0]hexan-3-yl]-3,3-dimethyl-1-oxobutan-2-yl}carbamate]"
2,6.32,"CC(C)CC(NC(=O)C1[C@@H]2[C@H](CN1C(=O)C(NC(=O)OC(C)(C)C)C(C)(C)C)C2(C)C)C(=O)C(N)=O (stereo partly drawn) [tert-butyl N-{1-[(1R,5S)-2-[(1-carbamoyl-4-methyl-1-oxopentan-2-yl)carbamoyl]-6,6-dimethyl-3-azabicyclo[3.1.0]hexan-3-yl]-3,3-dimethyl-1-oxobutan-2-yl}carbamate]"
3,6.44,"CCCCC(NC(=O)C1[C@@H]2[C@H](CN1C(=O)C(NC(=O)OC(C)(C)C)C(C)(C)C)C2(C)C)C(=O)C(N)=O (stereo partly drawn) [tert-butyl N-{1-[(1R,5S)-2-[(1-carbamoyl-1-oxohexan-2-yl)carbamoyl]-6,6-dimethyl-3-azabicyclo[3.1.0]hexan-3-yl]-3,3-dimethyl-1-oxobutan-2-yl}carbamate]"
4,< 4.16,"CC(C)(C)OC(=O)NC(C(=O)N1C[C@H]2[C@@H](C1C(=O)NC(C(=O)C(N)=O)C(C)(C)C)C2(C)C)C(C)(C)C (stereo partly drawn) [tert-butyl N-{1-[(1R,5S)-2-[(1-carbamoyl-3,3-dimethyl-1-oxobutan-2-yl)carbamoyl]-6,6-dimethyl-3-azabicyclo[3.1.0]hexan-3-yl]-3,3-dimethyl-1-oxobutan-2-yl}carbamate]"
5,6.66,"CCCC(NC(=O)C1[C@@H]2[C@H](CN1C(=O)C(NC(=O)OC(C)(C)C)C(C)(C)C)C2(C)C)C(=O)C(N)=O (stereo partly drawn) [tert-butyl N-{1-[(1R,5S)-2-[(1-carbamoyl-1-oxopentan-2-yl)carbamoyl]-6,6-dimethyl-3-azabicyclo[3.1.0]hexan-3-yl]-3,3-dimethyl-1-oxobutan-2-yl}carbamate]"
